Experimental data reported in publication PMC6749236, “Synthesis of Novel 2-(Het)arylpyrrolidine Derivatives and Evaluation of Their Anticancer and Anti-Biofilm Activity” (Molecules, 2019).
Values joined by “and” are separate entries in the source; they are usually repeats but may differ in a detail not shown here. Identical values can stand only once. Like-named read-outs stand apart in the source and are kept apart here. Marks after values point to notes of the source that are not given here.

Experiments:
M-Hela = experiment: Cytotoxicity assay (Cytell Cell Imaging, DAPI/propidium iodide), cancer cell line; type: cell-based; conditions: Homo sapiens, read-out: IC50 Cancer Cell Line M-Hela
Chang liver cell line = experiment: Cytotoxicity assay (Cytell Cell Imaging), normal cell line; type: cell-based; conditions: Homo sapiens, read-out: IC50 Normal Cell Line Chang Liver
P388 murine leukemia = experiment: In vivo anti-tumor activity, i.p. implanted leukemia; design: species or system BDF1 hybrid male mice; conditions: for ILS / MST ± SD: P388; for Survival: day 60; for Survivors/Total: survivors on day 60
Procedure: Animals. In vivo experiments were performed using the BDF1 hybrid male mice of 22–24 g weight. The experimental animals were caged in a standard vivarium in 12 h light conditions with free access to food and water. All manipulations with the animals were performed in accordance with the solutions of the Commission on Bioethics of the Institute of Problems of Chemical Physics, Russian Academy of Sciences (IPCP RAS).
Anti-tumor activity. The tumors were transplanted intraperitoneally (i.p.) in accordance with a standard procedure inoculum: 10^6 tumor cells in isotonic solution of NaCl, V = 0.2 cm^3 (leukemia P388). Original compounds were injected intraperitoneally as aqueous solution. Doses from 18 to 83 mg/kg/day and the mode of administration on days 1, 5, and 9 after transplantation were used. In each experiment, a single group of tumor-bearing animals not injected with the compounds served as the control group. Each group consisted of six mice. The animals were observed daily for survival for a minimum of 60 days. The efficacy of the therapy against leukemia (defined as increase in lifespan—ILS) was assessed as the percentage of the median survival time (MST) of the treated group (t) to that of the control group (c): ILS(%) = (MSTt/MSTc) × 100.
Statistics. The experiments were carried out in triplicate. The data are presented in the form X ± SD (mean ± standard deviation). The significance of the differences between the groups was assessed using Student’s t-test. Values of p < 0.05 were considered statistically significant. The data were processed statistically using GraphPad Prism.

[1] = Water solubility (selection for parenteral administration); type: physicochemical
[2] = system: Acinetobacter calcoaceticus VKPM B-10353; experiment: Biofilm formation, crystal violet assay; type: cell-based; conditions: A. calcoaceticus VKPM B-10353, control = 100%
Procedure: (§1) Bacterial strains and cultivation conditions. For the detection of biofilms, formation strains Vibrio aquamarinus DSM 26054 and Acinetobacter calcoaceticus VKPM B-10353 were used. These strains form biofilms, making them useful for studying biofilms.
(§2) The bacterial strains Acinetobacter calcoaceticus VKPM B-10353, E. coli MG1655 (pRecA-lux), and E. coli MG1655 (pSoxS-lux) were cultivated in Luria–Bertani (LB) medium under constant shaking to early exponential phase at 37 °C. Cells were used immediately for stress induction tests. One hundred micrograms of ampicillin per milliliter were added into LB medium at cultivation of E. coli MG1655 (pRecA-lux) and E. coli MG1655 (pSoxS-lux). Strain V. aquamarinus DSM 26054 was grown in LB medium supplemented with 3% NaCl.
(§3) The test compounds were dissolved in DMSO to the concentration of 1 × 10^−2 M. Then, they were diluted with ethanol. The control solutions were analogous dilutions of DMSO in ethanol. The tested compounds were also compared with the standard antibiotic azithromycin. Azithromycin was dissolved in DMSO to the concentration of 5 × 10^−3 M and then diluted with deionized water.
(§4) Test system for evaluation of biofilms production. To quantify the formation of biofilms, the crystal violet assay was used, with some modifications. The necessary concentrations of the test compounds were prepared as described above.
(§5) V. aquamarinus DSM 26054 was cultivated for 24 h in LB medium supplemented with 3% NaCl in the Innova 40R shaker incubator (New Brunswick Scientific, USA) at 25 °C and 200 rpm. A. calcoaceticus VKPM B-10353 was cultivated for 24 h in LB medium in the Innova 40R shaker incubator (New Brunswick Scientific, Enfield, CT, USA) at 30 °C and 200 rpm. Then, the suspensions of the daily culture of V. aquamarinus DSM 26054 and A. calcoaceticus VKPM B-10353 were diluted with LB medium supplemented with 3% NaCl to the density of 1 × 10^8 cells/mL.
(§6) The resulting suspension (180 μL) was added to the wells of a polystyrene microplate (Nuova Aptaca, Canelli, Italy). To some of the wells, 20 μL of the test substances at various concentrations were added. Since solvents used could also influence the biofilm formation, 20 μL of the appropriate solvent was added to the other part of the wells at same dilutions (control). Six replicates were done for each treatment and control. The microplate was covered with a lid and wrapped with Parafilm (Bemis Company, Inc., Oshkosh, WI, USA).
(§7) After incubation at 25 °C for 72 h, biofilms were stained. The contents in the wells were removed by means of a dispenser. The wells were then carefully washed three times with 250 μL of sterile saline. The microplates were shaken to remove all non-adherent bacteria. Biofilms were fixed with 200 μL of 96% ethanol for 15 min. After the microplates had dried in air, 200 μL of 0.5% crystal violet was introduced into the wells. After 10 min, the dye was removed. The excess dye was removed by washing with water three times. After the microplates were air-dried, the dye in the wells bound to biofilms was dissolved with 200 μL of 96% ethanol. The extraction level (absorption) of crystal violet by ethanol was measured after 60 minutes at a wavelength of 570 nm using a FLUOstar Omega microplate reader (BMG Labtech, Offenburg, Germany) in optical density units (OD570). The intensity of biofilm formation directly corresponds to the intensity of staining of the contents of the wells with the dye. Biofilm formation was determined by the difference between the mean OD readings obtained in the presence of compounds and the control.
(§8) Each experiment was performed in triplicate. The values were expressed as mean + SD. Student’s t-test was used to compare these values. Differences were considered statistically significant at p < 0.05.

[3] = system: Vibrio aquamarinus DSM 26054; experiment: Biofilm formation, crystal violet assay; type: cell-based; conditions: V. aquamarinus DSM 26054, control = 100%
Procedure: as §1, §2, §3, §4, §5, §6, §7, §8

[4] = system: Escherichia coli MG1655 (pRecA-lux); experiment: Genotoxicity, bacterial lux-biosensor; type: cell-based
From the text: (§9) E. coli MG1655 (pRecA-lux) was used for the evaluation of the genotoxicity of the synthesized compounds. The biosensor with the PrecA promotor fixes the presence of the factors causing damage of DNA in a cell. The biosensor E. coli MG1655 (pSoxS-lux) was used for the evaluation of prooxidant activity. The biosensor with the PsoxS promoter fixes the production of superoxide anion and NO [75]. Bioluminescent strains were obtained by the transformation of E. coli MG1655 by hybrid plasmids pRecA-lux, pSoxS-lux. The gene cassette luxCDABE Photorhabdus luminescens under the control PrecA promoters was used in this biosensor. This plasmid was created on the basis of pBR322 and contained a selective marker of ampicillin resistance (Amp gene). The strains were kindly furnished by Manukhov I.V., Federal State Unitary Enterprise “GosNIIGenetika”).
as §2
(§10) Biosensors assay procedure. The detailed protocol of toxicity testing by means of a bacterial lux-biosensors is described in the article.
(§11) Calculation. The criterion of toxic influence was bioluminescence intensity change of the test object in the researched sample in comparison with the control sample.
(§12) The induction factor (I) was defined as the relation of luminescence intensity of a lux-biosensor suspension containing tested sample (Lc) to the luminescence intensity of a lux-biosensor control suspension (Lk): I = Lc/Lk.
If at significant differences from control induction factor values were ≤2, the detected genotoxic effect was evaluated as “weak”, if they were in the range from 2 to 10 as “medium”, and above 10 as “strong”. All the experiments were carried out three times independently.
(§13) Difference reliability of bioluminescence in experiment from control value was estimated by t-criterion with the help of Excel software. The conclusions about sample toxicity were made at p < 0.05.

[5] = system: E. coli MG1655 (pSoxS-lux); experiment: Prooxidant activity, bacterial lux-biosensor; type: cell-based, Escherichia coli
From the text: as §9, §2, §10, §11, §12, §13

[6] = 18 mg/kg/day i.p., days 1, 5, 9
[7] = 26 mg/kg/day i.p., days 1, 5, 9
[8] = 40 mg/kg/day i.p., days 1, 5, 9
[9] = 55 mg/kg/day i.p., days 1, 5, 9
[10] = 83 mg/kg/day i.p., days 1, 5, 9

Structure (SMILES): CN(C)CCNC(=O)N1CCCC1c1cc2c(cc1O)OCO2.O=C(O)C(F)(F)F (stereo not drawn) [5h, 2-(2-(6-Hydroxybenzo[d][1,3]dioxol-5-yl)pyrrolidine-1-carboxamido)-N,N-dimethylethan-1-aminium 2,2,2-trifluoroacetate]
- IC50 (M-Hela; M-HeLa): > 100 µM
- IC50 (Chang liver cell line): > 100 µM
- ILS (P388 murine leukemia; [6]): 276%
- MST ± SD (P388 murine leukemia; [6]): 35.7 ± 10.9 days
- Survival (P388 murine leukemia; 18 mg/kg/day): 50%
- Survivors/Total (P388 murine leukemia; 18 mg/kg/day): 3/6
- ILS (P388 murine leukemia; [7]): 95%
- MST ± SD (P388 murine leukemia; [7]): 18.5 ± 8.3 days
- Survival (P388 murine leukemia; 26 mg/kg/day): 17%
- Survivors/Total (P388 murine leukemia; 26 mg/kg/day): 1/6
- ILS (P388 murine leukemia; [8]): 447%
- MST ± SD (P388 murine leukemia; [8]): 52.0 ± 8.0 days
- Survival (P388 murine leukemia; 40 mg/kg/day): 83%
- Survivors/Total (P388 murine leukemia; 40 mg/kg/day): 5/6
- ILS (P388 murine leukemia; [9]): 300%
- MST ± SD (P388 murine leukemia; [9]): 38.0 ± 9.9 days
- Survival (P388 murine leukemia; 55 mg/kg/day): 50%
- Survivors/Total (P388 murine leukemia; 55 mg/kg/day): 3/6
- ILS (P388 murine leukemia; [10]): 100%
- MST ± SD (P388 murine leukemia; [10]): 19.0 ± 8.2 days
- Survival (P388 murine leukemia; 83 mg/kg/day): 17%
- Survivors/Total (P388 murine leukemia; 83 mg/kg/day): 1/6
- antitumor (anti-leukemic) activity, in words (P388 murine leukemia; P388, dose range 18–83 mg/kg/day i.p., days 1, 5, 9): pronounced anti-leukemic activity
- solubility in water, in words [1]: water-soluble

Structure (SMILES): O=C(Nc1ccc(F)cc1)N1CCCC1c1ccc(Nc2c([N+](=O)[O-])c(Cl)cc3c2no[n+]3[O-])cc1O (stereo not drawn) [6e, 6-Chloro-4-((4-(1-((4-fluorophenyl)carbamoyl)pyrrolidin-2-yl)-3-hydroxyphenyl)amino)-5-nitrobenzo[c][1,2,5]oxadiazole 1-oxide]
- IC50 (M-Hela; M-Hela, tested at 1–100 µM, three independent experiments): 26 ± 1.8 µM
- IC50 (Chang liver cell line; tested at 1–100 µM, three independent experiments): 48 ± 3 µM
- Biofilm Formation ([2]; 1 × 10^−5 M): 86.50%
- Biofilm Formation ([2]; 1 × 10^−6 M): 53.27 * %
- Biofilm Formation ([2]; 1 × 10^−7 M): 55.40 * %
- Biofilm Formation ([2]; 1 × 10^−8 M): 47.66 * %
- Biofilm Formation ([2]; 1 × 10^−9 M): 87.92 * %
- Biofilm Formation ([3]; 1 × 10^−5 M): 39.57 * %
- Biofilm Formation ([3]; 1 × 10^−6 M): 26.02 * %
- Biofilm Formation ([3]; 1 × 10^−7 M): 11.01% and 11.01 * %
- Biofilm Formation ([3]; 1 × 10^−8 M): 17.96 * %
- Biofilm Formation ([3]; 1 × 10^−9 M): 67.29%
- detected genotoxic effect, class ([4]; concentration range of 10^−9–10^−5 M): medium (in the range from 2 to 10)
- Genotoxicity (induction factor, I) ([4]; with metabolic activation (+S9), 10^−5 M): 1.24 ± 0.02
- Genotoxicity (induction factor, I) ([4]; with metabolic activation (+S9), 10^−6 M): 1.47 ± 0.04
- Genotoxicity (induction factor, I) ([4]; with metabolic activation (+S9), 10^−7 M): 1.45 ± 0.02
- Genotoxicity (induction factor, I) ([4]; with metabolic activation (+S9), 10^−8 M): 1.35 ± 0.04
- Genotoxicity (induction factor, I) ([4]; with metabolic activation (+S9), 10^−9 M): 1.43 ± 0.01
- Genotoxicity (induction factor, I) ([4]; without metabolic activation (-S9), 10^−5 M): 2.00 ± 0.02
- Genotoxicity (induction factor, I) ([4]; without metabolic activation (-S9), 10^−6 M): 2.39 ± 0.02
- Genotoxicity (induction factor, I) ([4]; without metabolic activation (-S9), 10^−7 M): 2.46 ± 0.02
- Genotoxicity (induction factor, I) ([4]; without metabolic activation (-S9), 10^−8 M): 2.74 ± 0.04
- Genotoxicity (induction factor, I) ([4]; without metabolic activation (-S9), 10^−9 M): 2.56 ± 0.10
- Prooxidant activity (induction factor) ([5]; 10^−5 M): 0.84 ± 0.04
- Prooxidant activity (induction factor) ([5]; 10^−6 M): 1.34 ± 0.10
- Prooxidant activity (induction factor) ([5]; 10^−7 M): 1.85 ± 0.15
- prooxidant response, in words ([5]; 10^−7 M): weak response
- Prooxidant activity (induction factor) ([5]; 10^−8 M): 1.25 ± 0.28
- Prooxidant activity (induction factor) ([5]; 10^−9 M): 0.93 ± 0.03
- melting point: 175 to 177 °C (dec.)
